Source: patent US20040121965A1, “Method of treating resistant tumors” (Wyeth Holdings Corporation, priority 2002, published 2004)
Where two headings read alike, the source gives them in different places. Marks after values point to notes of the source that are not given here.

How the values were obtained:
[1] = tested on: BT474; assay: Cell survival assay (SRB), BT474; type: cell-based; details: Homo sapiens, BT-474, 72 h
Protocol: (§1) 2.2. Cell Survival Assay: Standard Pharmacological Test Procedure. […] Compounds are incubated with cells for 3 days.

[2] = tested on: MX-1W; assay: Cell survival assay (SRB), MX-1W; type: cell-based; details: Homo sapiens, MX1W, 72 h, 3 days
Text: (§2) Cells lines with previously known mechanisms of resistance. […] Res. 8: 207-218,1996); KB-3-1 (parental derived from an epidermoid carcinoma), KB-8.5, KB-V1 (Akiyama S-I, Fojo A, Hanover J A, Pastan I, Gottesman M M. Isolation and genetic characterization of human KB cell lines resistant to multiple drugs. Somatic Cell Mol. Gen., 11: 117-126,1985; Shen D-W, Cardarelli C, Hwang J, Cornwell M, Richert N, Ishii S, Pastan I, Gottesman MM. […] J. Biol. Chem., 261: 7762-7770, 1986); and HL-60 (parental derived from human leukemia) and HL60/AR (McGrath T., Center M. S. Adriamycin resistance in HL60 cells in the absence of detectable P-glycoprotein. Biochem. Res. Commun., 145:1171-1176,1987); A549 and A549.EpoB40 (He L., Yang C.-P.H., Horwitz S. B. Mutations in p-tubulin map to domains involved in regulation of microtubule stability in epothilone-resistant cell lines. Molecular Cancer Therapeutics. 1: 3-10, 2001). HCT-15 human colon carcinoma and DLD-1 human colon carcinoma are obtained from American Tissue Culture Collection. The MX-1W carcinoma is a Wyeth variant orginally obtained as MX-1 breast carcinoma from the National Cancer Institute. Cell lines selected for resistance to Representative Example 129. KB-3-1 cells are selected for resistance to Example 129 by chronically exposing cells to increasing concentrations of Example 129.
(§3) 2.2. Cell Survival Assay: Standard Pharmacological Test Procedure. The concentration of candidate inhibitor required to inhibit 50% of cell growth (IC50) is done according to previously reported methods. […] Compounds are serially diluted into media as 2× stocks and 100 μl added to cells in duplicate. Compounds are incubated with cells for 3 days. At the end of the incubation period the sulforhodamine B (SRB) assay, which measures protein content as an assessment of cell survival, is performed as described previously (Skehan P, Storeng R, Scudiero D, Monks A, McMahon J, Vistica D, Warren J T, Bokesch H, Kenney S, Boyd MR. New calorimetric cytotoxicity assay for anticancer-drug screening. J Natl Cancer Inst 1990 Jul 4;82(13):1107-12) with some modification as follows. For KB-3-1 cells with 20% FCS, media is gently decanted and replaced with 200 μl of serum-free media mixed with cold 50% TCA for a final concentration of 10% TCA. The plates are incubated for 1 hr at 4° C., followed by washing 5 times in cold distilled water, then air dried overnight. The fixed cells are stained for 10 min with 80 μl of 0.04% SRB solution prepared in 1% glacial acetic acid. Stain is discarded and plates washed 5 times in 1% glacial acetic acid, then air-dried until completely dry. Stained cell product is dissolved in 150 μl of 10 mM Trizma Base and placed on a shaker for 20 minutes until fully dissolved. Absorbance is read on a Victor V multi-label plate reader (Perkin Elmer, Gaithersburg, Md.).

[3] = tested on: DLD-1; assay: Cell survival assay (SRB), DLD-1; type: cell-based; details: Homo sapiens, DLD-1, 72 h, 3 days
Text: as §2, §3

[4] = tested on: HT-29; assay: Cell survival assay (SRB), HT-29; type: cell-based; details: Homo sapiens
Protocol: as §1

[5] = tested on: CCRF-CEM; assay: Cell survival assay (MTS), CCRF-CEM; type: cell-based; details: Homo sapiens, 72 h
Protocol: as §1

[6] = tested on: SK-Mel-2; assay: Cell survival assay (SRB), SK-Mel-2; type: cell-based; details: Homo sapiens
Protocol: as §1

[7] = tested on: NCI-H1299; assay: Cell survival assay (SRB), NCI-H1299; type: cell-based; details: Homo sapiens
Protocol: as §1

[8] = tested on: SK-MES-1; assay: Cell survival assay (SRB), SK-MES-1; type: cell-based; details: Homo sapiens
Protocol: as §1

[9] = tested on: A498; assay: Cell survival assay (SRB), A498; type: cell-based; details: Homo sapiens
Protocol: as §1

[10] = tested on: A431; assay: Cell survival assay (SRB), A431; type: cell-based; details: Homo sapiens, A-431, 72 h
Protocol: as §1

[11] = tested on: HL60/AR (MRP1); assay: Cell survival assay, HL60/AR (MRP1); details: for IC50: Homo sapiens, HL-60/AR, read-out: HL60/AR (MRP1) IC50, nM (N)
Text: as §2, §3
J. Cell Science,113: 2011-2021, 2000). It was unknown whether the hemiasterlin family of peptides interact with these drug pumps.

[12] = tested on: KB-PTX-15+099; assay: Cell survival assay, KB-PTX-15+099 (paclitaxel-resistant, non-MDR); type: cell-based, human; details: for IC50: Homo sapiens
[13] = tested on: MX-1W tumor; assay: Growth of tumors in nude mice, MX-1W xenograft; type: in vivo; details: for % T/C on day 7 / % T/C on day 14: MX-1W, days 1,5,9; for Activity in nude mice animal model (% T/C @ MTD on days 11-15) MX-1W: staged MX-1W xenograft, at MTD
Text: (§4) 2.4. Growth of Tumors in Nude Mice.

[14] = tested on: human carcinoma xenografts; assay: Growth of tumors in nude mice, several xenograft models and tolerated dose; type: in vivo
Text: as §4

[15] = tested on: KB-PTX-15+099 tumor xenografts; assay: Growth of tumors in nude mice, KB-PTX-15+099 xenograft; details: days 1,8,15

CN[C@H](C(=O)N[C@H](C(=O)N(C)[C@H](/C=C(\C)C(=O)O)C(C)C)C(C)(C)C)C(C)(C)c1ccccc1 [Example 129, N,β,β-trimethyl-L-phenylalanyl-N^1-[(1S,2E)-3-carboxy-1-isopropylbut-2-enyl]-N^1,3-dimethyl-L-valinamide]
IC50 [1]: 2.5 ± 1.6 nM | IC50 ([2]; MX-1W, breast, SRB staining): 1.8 ± 0.6 nM | IC50 ([2]; MX-1W, SRB, vehicle control (DMSO), no MDR-1 inhibitor): 1.4 nM | IC50 ([2]; read-out: IC50 + 5.0 uM MDR-1 inhibitor, MX-1W, SRB, + 5.0 uM 7-(6,7-dimethoxy-3,4-dihydro-1H-isoquinolin-2-yl)-2(3,4-dimethoxy-phenyl)-2-p-tolysulfanyl-heptanenitrile): 1.3 nM | IC50 ([3]; DLD-1, colon, SRB staining): 1.1 ± 0.4 nM | IC50 ([3]; DLD-1, SRB, vehicle control (DMSO), no MDR-1 inhibitor): 1.2 nM | IC50 ([3]; read-out: IC50 + 5.0 uM MDR-1 inhibitor, DLD-1, SRB, + 5.0 uM MDR-1 inhibitor (heptanenitrile of Table 2)): 1.1 nM | IC50 ([4]; HT-29, 72 h): 1.6 nM | IC50 [5]: 0.2 ± 0.03 nM | IC50 ([6]; SK-MEL-2, 72 h): 1.7 ± 0.5 nM | IC50 ([7]; NCI-H1299, 72 h): 6.8 ± 6.1 nM | IC50 ([8]; SK-MES-1, 72 h): 2.6 nM | IC50 ([9]; A498, 72 h): 0.8 nM | IC50 [10]: 2.4 ± 0.4 nM | IC50 [11]: 0.245 ± 0.45 nM | RR, relative resistance ([11]; IC50 HL60/AR / IC50 HL60): 1.2 | IC50 ([12]; read-out: KB-PTX-15+099 IC50 (nM)): 0.182 ± 0.028 nM | Average Relative Resistance (RR) ([12]; IC50 KB-PTX-15+099 / IC50 KB-3-1, less than 1 = increased sensitivity): (0.30) | increased sensitivity of KB-PTX-15+099 cells ([12]; vs KB-3-1): 3.4 fold | % T/C on day 7 ([13]; Example 129 1.6 mg/kg IV): 14** % | % T/C on day 14 ([13]; Example 129 1.6 mg/kg IV): 3** % | effect on growth of MX-1W tumor ([13]; orally administered): inhibited the growth | Activity in nude mice animal model (% T/C @ MTD on days 11-15) MX-1W [13]: 6% | inhibition of tumor growth ([14]; tumors derived from DLD-1, MX-1W or HCT-15): 60-95% | % T/C on day 6 ([15]; Example 129 1.25 mg/kg IV): 32** % | % T/C on day 9 ([15]; Example 129 1.25 mg/kg IV): 19** % | % T/C on day 13 ([15]; Example 129 1.25 mg/kg IV): 9** % | % T/C on day 16 ([15]; Example 129 1.25 mg/kg IV): 10** % | % T/C on day 20 ([15]; Example 129 1.25 mg/kg IV): 7** %

CC(=O)O[C@H]1C(=O)[C@@]2(C)[C@H]([C@H](OC(=O)c3ccccc3)[C@]3(O)C[C@H](OC(=O)[C@H](O)[C@@H](NC(=O)c4ccccc4)c4ccccc4)C(C)=C1C3(C)C)[C@]1(OC(C)=O)CO[C@@H]1C[C@@H]2O [paclitaxel, reference compound]
IC50 ([1]; BT474, breast, 3 days, SRB staining, read-out: IC50): 10 nM | IC50 ([2]; MX-1W, breast, SRB staining, read-out: IC50): 15.4 ± 2.9 nM | IC50 ([2]; MX-1W, SRB, + 5.0 uM 7-(6,7-dimethoxy-3,4-dihydro-1H-isoquinolin-2-yl)-2(3,4-dimethoxy-phenyl)-2-p-tolysulfanyl-heptanenitrile, read-out: IC50 + 5.0 uM MDR-1 inhibitor): 8.3 nM | IC50 ([2]; MX-1W, SRB, vehicle control (DMSO), no MDR-1 inhibitor, read-out: IC50): 138 nM | IC50 ([3]; DLD-1, colon, SRB staining, read-out: IC50): 30.8 ± 12.7 nM | IC50 ([3]; DLD-1, SRB, + 5.0 uM MDR-1 inhibitor (heptanenitrile of Table 2), read-out: IC50 + 5.0 uM MDR-1 inhibitor): 3.8 nM | IC50 ([3]; DLD-1, SRB, vehicle control (DMSO), no MDR-1 inhibitor, read-out: IC50): 21.8 nM | IC50 ([4]; 72 h, HT-29, colon, 3 days, SRB staining, read-out: IC50): 6.1 nM | IC50 ([5]; leukemia, 3 days, MTS assay, read-out: IC50): 3.3 ± 1.3 nM | IC50 ([6]; 72 h, SK-Mel-2, melanoma, 3 days, SRB staining, read-out: IC50): 3.2 ± 1.8 nM | IC50 ([7]; 72 h, NCI-H1299, NSCLC, 3 days, SRB staining, read-out: IC50): 37.7 ± 12.6 nM | IC50 ([8]; 72 h, SK-MES-1, NSCLC, 3 days, SRB staining, read-out: IC50): 29 nM | IC50 ([9]; 72 h, A498, renal, 3 days, SRB staining, read-out: IC50): 27.5 nM | IC50 ([10]; A431, squamous, 3 days, SRB staining, read-out: IC50): 7.6 nM | IC50 [11]: 5.2 nM | IC50 ([12]; KB-PTX-15+099, Table 6, read-out: KB-PTX-15+099 IC50): 57.8 ± 9.6 nM | resistance of KB-PTX-15+099 cells ([12]; vs KB-3-1): 21 fold | % T/C on day 7 ([13]; paclitaxel 60 mg/kg IV): 76% | % T/C on day 14 ([13]; paclitaxel 60 mg/kg IV): 77% | Activity in nude mice animal model (% T/C @ MTD on days 11-15) MX-1W [13]: 73% | response of tumors ([14]; DLD-1, MX-1W or HCT-15 tumors, at or near the MTD): no response | % T/C on day 6 ([15]; paclitaxel 60 mg/kg IV): 103% | % T/C on day 9 ([15]; paclitaxel 60 mg/kg IV): 93% | % T/C on day 13 ([15]; paclitaxel 60 mg/kg IV): 89% | % T/C on day 16 ([15]; paclitaxel 60 mg/kg IV): 87% | % T/C on day 20 ([15]; paclitaxel 60 mg/kg IV): 90%
